# Test results from US12559574B2 (National Health Research Institutes, priority 2019, dated 2026).
# Like-named read-outs stand apart in the source and are kept apart here.
# B1: 6G10F6: mouse monoclonal anti-succinate antibody, heavy chain SEQ ID NO: 2, light chain SEQ ID NO: 4 (antibody, V domains shown)
# VH: MRVLILLWLFTAFPGILSDVQLQESGPGLVKPSQSLSLTCTVTGYSITSDYAWNWFRQFPGNKLEWMGYTSYSGSTSYNPSLKSRISITRNTSKNQIFLQLNSVTPEDTATYYCAREVTTFGYFDYWGQGTTLTVSS
# VL: MAWTSLILSLLALCSGASSQAVVTQESALTTSPGGTVILTCRSSTGAVTTSNYANWVQEKPDHLFTGLIGGTSNRAPGVPVRFSGSLIGDKAALTITGAQTEDDAMYFCALWYSTHYVLGGGTKVTVL
# modifications: Heavy chain of 6G10F6 Antibody; Light chain of 6G10F6 antibody
# Columns and labels:
# A549 = assay: transwell migration and Matrigel invasion, A549; format: cell-based, human; conditions: 24 h; for succinate-induced A549 migration: succinate with test agent
# Method: (§1) Transwell migration and invasion assays are performed. Relative ability of migration or invasion is calculated from 3 fields under a light microscope. […] Migration assays and Matrigel invasion assay are then performed with PDGF-BB as a chemoattractant and migrated cell counts expressed as fold of basal controls.
# (§2) The cells are lysed, and the cell lysates are immunoblotted with antibodies specific for E-cadherin, N-cadherin, vimentin, or β-actin.
# (§3) LLC and A549 lung cancer cells are treated with different concentrations of HIF-1α specific inhibitors, and cell migration is assessed in a transwell assay. […] Prolyl hydroxylase (PHD) controls HIF-1α protein stability by hydroxylation of two conserved proline residues in HIF-1α thereby accelerating its degradation. […] Cell lysates are immunoblotted with antibodies specific for E-cadherin, Vimentin, or […]-actin.
# LLC cells = assay: transwell migration and Matrigel invasion, LLC; format: cell-based, murine; conditions: 24 h; for succinate-induced LLC migration: succinate with test agent
# Method: as §1, §3
# A549 cells = assay: EMT marker immunoblot in A549 cells; format: cell-based, human
# Method: as §2, §3
# HIF-1α [1] = assay: kinase phosphorylation and HIF-1α expression in A549 cells; format: cell-based, human; conditions: for HIF-1α expression: A549/shNC cells, succinate 1 mM or DMS 20 mM, 12 h, qPCR
# Method: MAPK-, phosphatidylinositol 3-kinase (PI3K)-AKT-mTOR-, and AMP-activated protein kinase (AMPK)-mediated hypoxia-inducible factor-1α (HIF-1α) upregulation plays critical roles in macrophage activation and cancer progression. Therefore, it is investigated that whether these signaling molecules mediate the succinate actions. […] Using selective kinase inhibitors, LLC cells are treated with different concentrations of LY294002 or SB202190 for 12 h, and Hif-1α mRNA is measured. […] To understand the role of SUCNR1 in driving HIF-1α expression, the expression level of HIF-1α in A549/shSUCNR1 is determined.
# LLC [2] = conditions: succinate 20 and 100 mg/kg i.p. twice a week for 3 weeks vs saline
# Method: (§4) On day 21, primary subcutaneous tumors are harvested, and percentage of TAMs is analyzed.
# [3] = test system: mouse peritoneal macrophages
# Method: as §4
# SUCNR1 [4] = conditions: A549, succinate 1 mM
# MCF-7 = conditions: MCF-7, different concentrations of succinate, 24 h
# Method: as §1
# HT-29 = assay: transwell migration and Matrigel invasion, HT-29; format: cell-based, human; conditions: HT-29, different concentrations of succinate, 24 h
# Method: (§5) Transwell migration and invasion assays are performed.
# (§6) Succinate-induced migration of LLC, A549, PC3 and HT-29 cells is blocked by anti-SUCNR1 antibody but not control IgG antibody (FIG. 23A).
# SUCNR1 [5] = conditions: succinate 1 mM, 2 h
# PC3 = assay: transwell migration and Matrigel invasion, PC3; format: cell-based, human; conditions: PC3, different concentrations of succinate, 24 h
# Method: as §5, §6
# peritoneal macrophages [6] = assay: peritoneal macrophage transwell migration (A549-CM, succinate, anti-SUCNR1); format: cell-based, mouse; conditions: succinate vs control
# Method: The peritoneal macrophages are seeded on the upper chamber of transwell plates and cultured with control medium (DMEM) or CM from A549 (A549-CM) for 24 h. […] As shown in FIGS. 18A and 18B, A549-CM and A549-SCM increase macrophage migration compared with the control medium, which is abrogated by anti-SUCNR1 antibody but not control IgG.
# HIF-1α [7] = assay: kinase phosphorylation and HIF-1α expression in LLC cells; format: cell-based, murine; conditions: succinate 1 mM
# LLC [8] = test system: LLC
# Excerpt: The subcutaneous primary tumors are surgically removed after 3 weeks and mice are kept for another 2 weeks at which time animals are sacrificed.
# peritoneal macrophages [9] = assay: succinate-induced peritoneal macrophage migration with anti-succinate antibodies, transwell; format: cell-based, mouse; conditions: succinate 1 mM, 24 h
# Method: (§7) VCAM1^+CD11c^+CD11b^low-TAM population is quantified by flow cytometry and normalized to the cell number of control medium treatment. […] The LLC cells are subcutaneously injected into C57BL/6J mice. The mice with an average 50 mm^3 subcutaneous tumors (8 day after LLC tumor inoculation) receive intraperitoneal injections of 6G10F6 monoclonal antibody (1 and 5 mg/kg) or IgG control antibody (5 mg/kg), twice a week for 5 weeks. The subcutaneous tumors are surgically removed 3 weeks after LLC injection for the assessment of TAM polarization; the lung, liver, spleen, and adrenal gland are excised from mice 2 weeks after removal of the primary tumor for the determination of tumor metastasis.
# PMϕs = assay: VCAM1+CD11c+CD11b low-TAM population in succinate-stimulated PMϕs, flow cytometry; format: cell-based, mouse; conditions: pre-treated 1 h, succinate 1 mM 3 days
# Method: as §7
# LLC [10] = assay: syngeneic murine LLC tumor model treated with 6G10F6 monoclonal antibody
# Method: as §7
# [11] = succinate 20 and 100 mg/kg i.p. twice a week vs saline
molecule,measurement,setting,value
COc1cc2c(cc1O)CC[C@@H]1[C@@H]2CC[C@]2(C)[C@@H](O)CC[C@@H]12 [2-MeOE2],succinate-induced A549 migration,A549,inhibit succinate-mediated migration of LLC and A549 in a dose-dependent manner
same,succinate-induced LLC migration,LLC cells,inhibit succinate-mediated migration of LLC and A549 in a dose-dependent manner
Cc1cc(-c2nc(-c3ccc(OC(F)(F)F)cc3)no2)nn1Cc1ccnc(N2CCN(C3CC3)CC2)c1 [Bay 87-2243],succinate-induced A549 migration,A549,inhibit succinate-mediated migration of LLC and A549 in a dose-dependent manner
same,succinate-mediated vimentin augmentation and E-cadherin reduction,"A549 cells; pretreated 1 h, succinate 1 mM 24 h",suppresses
same,succinate-induced LLC migration,LLC cells,inhibit succinate-mediated migration of LLC and A549 in a dose-dependent manner
"COC(=O)CNC(=O)C(=O)OC [DMOG, dimethyloxalyl glycine]",succinate-induced A549 migration,A549,increases
"COC(=O)CCC(=O)OC [DMS, dimethyl-ester succinate, reference compound]",HIF-1α expression,HIF-1α [1],results in elevation of HIF-1α
CN(C)C(=N)N=C(N)N [metformin],succinate-induced A549 migration,A549,abolish
O=C(O)CCC(=O)O [succinate],VCAM1+CD11c+CD11b low-TAMs in primary subcutaneous tumors,LLC [2],significantly higher number
same,ARG1 protein expression,"[3]; different concentrations of succinate, 24 h",increases the expression of ARG1 protein in mouse peritoneal macrophages in a concentration-dependent manner
same,"TAM marker gene expression (Arg1, Fizz1, Mgl1, Mgl2 mRNA)","[3]; qPCR, 24 h",raises the expression of TAM marker gene
same,TAM surface markers CD11c and VCAM1,"[3]; succinate 1 mM, 3 days, flow cytometry",up-regulates TAM surface markers
same,cell migration and invasion,"A549; A549, different concentrations of succinate",promotes cell migration and invasion
same,phosphorylated ERK1/2,SUCNR1 [4],rapid rise of phosphorylated ERK1/2 at 2 min
same,intracellular Ca2+,SUCNR1 [4]; 2 h,increased
same,cell migration and invasion,MCF-7,promotes cell migration and invasion
same,cell migration and invasion,HT-29,promotes cell migration and invasion
same,HIF-1α protein and mRNA expression,"HIF-1α [1]; A549, succinate 1 mM",increases HIF-1α protein
same,"phosphorylation of p38 MAPK, AKT, and AMPK","HIF-1α [1]; A549, succinate 1 mM","induces phosphorylation of p38 MAPK, AKT, and AMPK in a time-dependent manner"
same,HIF-1α expression,HIF-1α [1],Up-regulation of HIF-1α is observed
same,PGE2 released into the medium,SUCNR1 [5]; LLC stably transfected with control shRNA,increased
same,intracellular Ca2+,SUCNR1 [5]; LLC,increased
same,cell migration and invasion,PC3,promotes cell migration and invasion
same,macrophage migration,peritoneal macrophages [6],dramatically increase macrophage migration
same,"E-cadherin, N-cadherin and vimentin levels","A549 cells; succinate 0.5, 1, 2.5 mM 24 h, 1 mM time course",suppresses E-cadherin and increased N-cadherin and vimentin in a concentration and time-dependent manner
same,HIF-1α protein and mRNA expression,HIF-1α [7],increases HIF-1α protein
same,"phosphorylation of p38 MAPK, AKT, and AMPK",HIF-1α [7],"induces phosphorylation of p38 MAPK, AKT, and AMPK in a time-dependent manner"
same,metastatic cancer nodules in liver and spleen,LLC [8]; [11],similarly higher
same,metastatic cancer nodules in lungs,LLC [8]; [11],higher in mice receiving succinate (in a dose-dependent manner) than in mice receiving saline
same,incidence of adrenal metastasis,"LLC [8]; succinate-treated vs saline, p=0.088","higher in succinate-treated animal, but the difference does not reach statistical significance"
same,cell migration and invasion,"LLC cells; LLC, different concentrations of succinate",promotes cell migration and invasion
"O=C(O)CCC(=O)C(=O)O [α-KG, α-ketoglutarate]",succinate-induced A549 migration,A549,reduces
B1,succinate-induced macrophage migration,peritoneal macrophages [9],suppresses
same,succinate up-regulated TAM surface markers CD11c and VCAM1,PMϕs,suppresses
same,survival of LLC tumor-bearing mice,LLC [10]; 1 and 5 mg/kg i.p.,significantly prolongs the survival
same,lung tumor multiplicities,"LLC [10]; 1 and 5 mg/kg i.p. twice a week for 5 weeks, vs saline",significantly suppresses
same,TAM population in subcutaneous tumors,"LLC [10]; 1 and 5 mg/kg i.p. twice a week, vs saline",significantly suppresses
